Assay results: US8871728B2, “Non-peptide macrocyclic histone deacetylese (HDAC) inhibitors and methods of making and using thereof” (Georgia Tech Research Corporation, priority 2007, dated 2014)
Where two headings read alike, the source gives them in different places.

Legend:
[1] = tested on: Plasmodium falciparum (D6 clone), chloroquine-sensitive; assay: Plasmodium growth inhibition, parasite lactate dehydrogenase assay (Malstat); type: cell-based; conditions: for Plasmodium falciparum (D6 clone) IC50: chloroquine-sensitive; for S.I. D6: selective toxicity index, Vero versus D6
Protocol: (§1) The compounds described herein were also evaluated for parasitic activity against Plasmodium falciparum and Leismania donovani. P. falciparum and L. donovani are the causative parasites of malaria and leishmaniasis, two human diseases which constitute a serious threat to public health in tropical and sub-tropical countries. Antimalarial activity was evaluated in vitro using chloroquine-sensitive (D6, Sierra Leone) and chloroquine-resistant (W2, Indochina) strains of P. falciparum. Antileishmanial activity was evaluated in vitro against the promastigote stage of L. donovani.
(§2) Plasmodium growth inhibition was determined by a parasite lactate dehydrogenase assay using Malstat reagent. Inhibition of viability of the promastigote stage of L. donovani was determined using standard Alamar blue assay, modified to a fluorometric assay.
as §1, with “Macrocyclic histone deacetylase inhibitors” for “The compounds described herein”, “were” for “were also”
as §2

[2] = tested on: Plasmodium falciparum (W2 clone), chloroquine-resistant; assay: as above; type: cell-based; conditions: for Plasmodium falciparum (W2 clone) IC50: chloroquine-resistant; for S.I. (W2): selective toxicity index, Vero versus W2, value in brackets
Protocol: as §1, §2
as §1, with “Macrocyclic histone deacetylase inhibitors” for “The compounds described herein”, “were” for “were also”
as §2

[3] = tested on: promastigote stage of L. donovani; assay: Antileishmanial Alamar blue fluorometric assay; type: cell-based; conditions: promastigotes
Protocol: as §1, §2
as §1, with “Macrocyclic histone deacetylase inhibitors” for “The compounds described herein”, “were” for “were also”
as §2

HDAC6 = HDAC6 (Homo sapiens (Human), UniProt Q9UBN7); assay: Fluor de Lys HDAC6 inhibition; type: biochemical; conditions: for IC50: Table 5, read-out: HDAC 6; for HDAC6: Nuclear Extract Isoform Selectivity: ratio of IC50 HDAC6 to nuclear extract
HDAC6, sequence (Q9UBN7 whole entry, canonical isoform): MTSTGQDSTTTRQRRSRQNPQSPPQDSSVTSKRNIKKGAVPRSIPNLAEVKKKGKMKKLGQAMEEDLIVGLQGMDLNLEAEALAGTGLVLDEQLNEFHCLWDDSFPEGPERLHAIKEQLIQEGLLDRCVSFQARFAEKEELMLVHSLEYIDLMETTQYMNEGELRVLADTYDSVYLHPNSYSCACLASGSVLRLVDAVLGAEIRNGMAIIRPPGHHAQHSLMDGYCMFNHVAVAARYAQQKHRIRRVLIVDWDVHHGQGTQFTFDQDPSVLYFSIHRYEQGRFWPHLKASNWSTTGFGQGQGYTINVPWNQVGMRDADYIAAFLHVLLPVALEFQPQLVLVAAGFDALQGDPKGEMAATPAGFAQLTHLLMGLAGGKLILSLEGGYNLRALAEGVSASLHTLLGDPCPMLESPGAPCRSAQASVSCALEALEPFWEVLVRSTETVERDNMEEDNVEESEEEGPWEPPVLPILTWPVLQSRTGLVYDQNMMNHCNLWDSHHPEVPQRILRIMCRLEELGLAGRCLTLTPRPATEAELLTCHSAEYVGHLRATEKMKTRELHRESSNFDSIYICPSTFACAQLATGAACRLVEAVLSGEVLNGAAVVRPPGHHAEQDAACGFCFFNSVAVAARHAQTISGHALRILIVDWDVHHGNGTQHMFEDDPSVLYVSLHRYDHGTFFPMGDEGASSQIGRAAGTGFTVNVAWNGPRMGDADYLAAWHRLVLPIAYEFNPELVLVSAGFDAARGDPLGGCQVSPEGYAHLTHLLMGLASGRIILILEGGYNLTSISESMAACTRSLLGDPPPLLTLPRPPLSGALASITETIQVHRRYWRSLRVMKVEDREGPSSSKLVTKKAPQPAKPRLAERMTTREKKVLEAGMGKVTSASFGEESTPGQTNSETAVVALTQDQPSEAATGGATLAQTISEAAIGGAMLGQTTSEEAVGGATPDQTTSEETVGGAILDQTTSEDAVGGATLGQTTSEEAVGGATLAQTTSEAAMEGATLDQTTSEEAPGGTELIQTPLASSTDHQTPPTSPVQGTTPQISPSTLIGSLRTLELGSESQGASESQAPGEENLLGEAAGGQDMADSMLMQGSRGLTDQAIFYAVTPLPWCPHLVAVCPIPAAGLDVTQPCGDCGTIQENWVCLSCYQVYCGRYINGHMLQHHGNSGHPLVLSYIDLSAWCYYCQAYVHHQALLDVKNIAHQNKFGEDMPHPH
From the text: (§3) Fluor de Lys™ is a fluorescence based HDAC activity assay comprising a combination of fluorogenic Histone deAcetylase Lysyl substrate and a developer. The kit is a highly sensitive and convenient alternative to radiolabeled, acetylated histones or peptide/HPLC methods for the assay of histone deacetylases. This assay is based on the ability of HeLa nuclear extract, which is enriched in HDAC activity, to mediate the deacetylation of the acetylated lysine side chain of the Fluor de Lys substrate. The assay procedure requires two steps. First, incubation of the HeLa nuclear extract with the Fluor de Lys substrate results in substrate deacetylation and thus sensitizes it to the second step. In the second step, treatment of the deacetylated substrate with the Fluor de Lys developer produces a fluorophore. The substrate-developer reaction, under normal circumstances goes to completion in less than 1 min at 25° C. The kit used was the Fluorimetric Assay/Drug Discovery Kit—AK-500 Manual Fluorescent Assay System available from BIOMOL® International, Plymouth Meeting, Pa.
The ketolides 56 were also evaluated for their HDAC inhibitory activity against HDACs 1 and 2 from HeLa cell nuclear extract, HDAC6, and HDAC8 using the Fluor de Lys assay.

HDAC8 = HDAC8 (Homo sapiens (Human), UniProt Q9BY41); assay: Fluor de Lys HDAC8 inhibition; type: biochemical; conditions: for IC50: read-out: HDAC 8; for HDAC8: Nuclear Extract Isoform Selectivity: ratio of IC50 HDAC8 to nuclear extract
HDAC8, sequence (Q9BY41 whole entry, canonical isoform): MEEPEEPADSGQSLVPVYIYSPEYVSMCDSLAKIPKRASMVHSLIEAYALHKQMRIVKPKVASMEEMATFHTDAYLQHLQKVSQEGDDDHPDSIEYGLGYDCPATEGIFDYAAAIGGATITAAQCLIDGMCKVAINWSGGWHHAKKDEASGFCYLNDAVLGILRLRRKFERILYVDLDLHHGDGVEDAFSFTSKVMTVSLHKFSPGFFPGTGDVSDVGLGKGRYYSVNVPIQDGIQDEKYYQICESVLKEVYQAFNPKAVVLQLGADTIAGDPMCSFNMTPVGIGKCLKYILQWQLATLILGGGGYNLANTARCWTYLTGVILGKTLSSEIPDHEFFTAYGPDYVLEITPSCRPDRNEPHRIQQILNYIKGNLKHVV

[4] = tested on: HeLa nuclear extract HDAC1/2; assay: Fluor de Lys HDAC inhibition, HeLa nuclear extract; type: biochemical, human
From the text: as §3
Each IC50 value was obtained by averaging three independent experiments.

lung (A549) = assay: Cell viability, MTS colorimetric assay; type: cell-based
Protocol: (§4) The effect of compounds 56a-e on cancer cell lines: prostate (DU-145), lung (A549), and breast cancer (MCF-7) and a non-transformed cell, human lung fibroblast cell (Hs1.Lu) were also evaluated.

prostate (DU-145) = assay: Cell viability, MTS colorimetric assay; type: cell-based
Protocol: as §4

breast cancer (MCF-7) = assay: Cell viability, MTS colorimetric assay; type: cell-based
Protocol: as §4

SKMES 1 = assay: Cell viability, trypan blue exclusion; type: cell-based; conditions: Homo sapiens, SK-MES-1
From the text: (§5) Most importantly, the compounds we less toxic to untransformed cell-lines (lung fibroblast and HMEC).
(§6) Most importantly, these compounds are less toxic to untransformed cell-lines (lung fibroblast and HMEC) that we have studied to date.

DU 145 cells = assay: Cell viability, trypan blue exclusion; type: cell-based; conditions: Homo sapiens
From the text: as §5, §6

lung fibroblasts = assay: Cell viability, trypan blue exclusion; type: cell-based; conditions: Fibroblast; untransformed cells
From the text: as §5, §6

NCI-H69 = assay: Cell viability, trypan blue exclusion; type: cell-based; conditions: Homo sapiens
From the text: as §5, §6

HMEC = assay: Cell viability, trypan blue exclusion; type: cell-based; conditions: Homo sapiens; untransformed cells
From the text: as §5, §6

[5] = HDACs 1 and 2 from HeLa cell nuclear extract, Table 5, read-out: Nuclear Extract
[6] = average of three independent experiments, Table 4
[7] = HeLa nuclear extract, average of three independent experiments, Table 4, read-out: HDAC ½

## CCC1OC(=O)C(C)C(=O)C(C)C(OC2OC(C)CC(N(C)Cc3ccc(-c4cn(CCCCCCCCC(=O)NO)nn4)cc3)C2O)C(C)(OC)CC(C)C2=NCCN3C(=O)OC1(C)C3C2C (stereo not drawn) [Compound 56d, Tricyclic Ketolide-N-benzyltriazolylnonahydroxamic acid]
[1]
  Plasmodium falciparum (D6 clone) IC50: 1.20 µg/mL
  S.I. D6: > 4.0
[2]
  Plasmodium falciparum (W2 clone) IC50: 1.30 µg/mL
  S.I. (W2): > 3.7
[3]
  Antileshmanial activity IC50: 14 µg/mL
  Antileshmanial activity IC90: 32 µg/mL
HDAC6
  IC50: 1920 nM
  HDAC6: Nuclear Extract Isoform Selectivity: 11.7
HDAC8; Table 5
  IC50: 2860 nM
HDAC8
  HDAC8: Nuclear Extract Isoform Selectivity: 17.5
[4]; [5]
  IC50: 164 nM
Lung (A549)
  EC50: 2480 nM
Prostate (DU-145)
  EC50: 3890 nM
Breast cancer (MCF-7)
  EC50: 2560 nM

## CCC1OC(=O)C(C)C(=O)C(C)C(OC2OC(C)CC(N(C)Cc3ccc(-c4cn(CCCCCC(=O)NO)nn4)cc3)C2O)C(C)(OC)CC(C)C2=NCCN3C(=O)OC1(C)C3C2C (stereo not drawn) [Compound 56a, Tricyclic Ketolide-N-benzyltriazolylhexahydroxamic acid]
[1]
  Plasmodium falciparum (D6 clone) IC50: 0.96 µg/mL
  S.I. D6: >5.0 (no value)
[2]
  Plasmodium falciparum (W2 clone) IC50: 1.80 µg/mL
HDAC6
  IC50: 1180 nM
  HDAC6: Nuclear Extract Isoform Selectivity: 151.9
HDAC8; Table 5
  IC50: 796 nM
HDAC8
  HDAC8: Nuclear Extract Isoform Selectivity: 102.5
[4]; [5]
  IC50: 7.77 nM
Lung (A549)
  EC50: 1170 nM
Prostate (DU-145)
  EC50: 1640 nM
Breast cancer (MCF-7)
  EC50: 1260 nM

## CC[C@H]1OC(=O)[C@H](C)[C@@H](O[C@H]2C[C@@](C)(OC)[C@@H](O)[C@H](C)O2)[C@H](C)[C@@H](O[C@@H]2O[C@H](C)C[C@H](N(C)Cc3ccc(-c4cn(CCCCCCCCC(=O)NO)nn4)cc3)[C@H]2O)[C@](C)(OC)C[C@@H](C)C(=O)[C@H](C)[C@@H](O)[C@]1(C)O [Compound 29, Clarithromycin-N-Phenyltriazolylnonahydroxamic acid]
SKMES 1
  EC50: 7120 nM
DU 145 cells
  EC50: 8140 nM
Lung fibroblasts
  EC50: > 10000 nM
NCI-H69
  EC50: 7290 nM
HMEC
  EC50: > 10000 nM
HDAC8; [6]
  IC50: 10600 nM
[4]; [7]
  IC50: 170 nM

## CCC1OC(=O)C(C)C(=O)C(C)C(OC2OC(C)CC(N(C)Cc3ccc(-c4cn(CCCCCCCC(=O)NO)nn4)cc3)C2O)C(C)(OC)CC(C)C2=NCCN3C(=O)OC1(C)C3C2C (stereo not drawn) [Compound 56c, Tricyclic Ketolide-N-benzyltriazolyloctahydroxamic acid]
[1]
  Plasmodium falciparum (D6 clone) IC50: 1.20 µg/mL
  S.I. D6: > 4.0
[2]
  Plasmodium falciparum (W2 clone) IC50: 1.50 µg/mL
  S.I. (W2): > 3.2
[3]
  Antileshmanial activity IC50: 19 µg/mL
  Antileshmanial activity IC90: 36 µg/mL
HDAC6
  IC50: 1710 nM
  HDAC6: Nuclear Extract Isoform Selectivity: 16.4
HDAC8; Table 5
  IC50: 1910 nM
HDAC8
  HDAC8: Nuclear Extract Isoform Selectivity: 18.3
[4]; [5]
  IC50: 104 nM
Lung (A549)
  EC50: 1640 nM
Prostate (DU-145)
  EC50: 3700 nM
Breast cancer (MCF-7)
  EC50: 1350 nM

## CCC1OC(=O)C(C)C(=O)C(C)C(OC2OC(C)CC(N(C)Cc3ccc(-c4cn(CCCCCCCCCC(=O)NO)nn4)cc3)C2O)C(C)(OC)CC(C)C2=NCCN3C(=O)OC1(C)C3C2C (stereo not drawn) [Compound 56e, Tricyclic Ketolide-N-benzyltriazolyldecahydroxamic acid]
[1]
  Plasmodium falciparum (D6 clone) IC50: 1.20 µg/mL
  S.I. D6: > 4.0
[2]
  Plasmodium falciparum (W2 clone) IC50: 0.84 µg/mL
  S.I. (W2): > 5.7
[3]
  Antileshmanial activity IC50: 4.8 µg/mL
  Antileshmanial activity IC90: 23 µg/mL
HDAC6
  IC50: 3200 nM
  HDAC6: Nuclear Extract Isoform Selectivity: 15.4
HDAC8; Table 5
  IC50: 4560 nM
HDAC8
  HDAC8: Nuclear Extract Isoform Selectivity: 21.9
[4]; [5]
  IC50: 208 nM
Lung (A549)
  EC50: 2810 nM
Prostate (DU-145)
  EC50: 4830 nM
Breast cancer (MCF-7)
  EC50: 3680 nM

## CC[C@H]1OC(=O)[C@H](C)[C@@H](O)[C@H](C)[C@@H](O[C@@H]2O[C@H](C)C[C@H](N(C)Cc3ccc(-c4cn(CCCCCCC(=O)NO)nn4)cc3)[C@H]2O)[C@](C)(OC)C[C@@H](C)C(=O)[C@H](C)[C@@H](O)[C@]1(C)O [Compound 26, Descladinose-Clarithromycin-N-phenyltriazolylheptahydroxamic acid]
SKMES 1
  EC50: 1280 nM
DU 145 cells
  EC50: 1050 nM
Lung fibroblasts
  EC50: > 10000 nM
NCI-H69
  EC50: 1490 nM
HMEC
  EC50: > 10000 nM
HDAC8; [6]
  IC50: 1390 nM
[4]; [7]
  IC50: 1.87 nM

## CC[C@H]1OC(=O)[C@H](C)[C@@H](O)[C@H](C)[C@@H](O[C@@H]2O[C@H](C)C[C@H](N(C)Cc3ccc(-c4cn(CCCCCC(=O)NO)nn4)cc3)[C@H]2O)[C@](C)(OC)C[C@@H](C)C(=O)[C@H](C)[C@@H](O)[C@]1(C)O [Compound 24, Descladinose-Clarithromycin-N-phenyltriazolylhexahydroxamic acid]
SKMES 1
  EC50: 1950 nM
DU 145 cells
  EC50: 3290 nM
Lung fibroblasts
  EC50: > 10000 nM
NCI-H69
  EC50: 1920 nM
HMEC
  EC50: > 10000 nM
HDAC8; [6]
  IC50: 4750 nM
[4]; [7]
  IC50: 44.3 nM

## CCC1OC(=O)C(C)C(=O)C(C)C(OC2OC(C)CC(N(C)Cc3ccc(-c4cn(CCCCCCC(=O)NO)nn4)cc3)C2O)C(C)(OC)CC(C)C2=NCCN3C(=O)OC1(C)C3C2C (stereo not drawn) [Compound 56b, Tricyclic Ketolide-N-benzyltriazolylheptahydroxamic acid]
[1]
  Plasmodium falciparum (D6 clone) IC50: 0.14 µg/mL
  S.I. D6: > 34
[2]
  Plasmodium falciparum (W2 clone) IC50: 0.12 µg/mL
  S.I. (W2): > 39.7
HDAC6
  IC50: 729 nM
  HDAC6: Nuclear Extract Isoform Selectivity: 707.5
HDAC8; Table 5
  IC50: 545 nM
HDAC8
  HDAC8: Nuclear Extract Isoform Selectivity: 528.7
[4]; HDACs 1 and 2 from HeLa cell nuclear extract, Table 5
  Nuclear Extract (nM): single digit nanomolar
[4]; [5]
  IC50: 1.03 nM
Lung (A549)
  EC50: 660 nM
Prostate (DU-145)
  EC50: 820 nM
Breast cancer (MCF-7)
  EC50: 750 nM
